Reference: patent US20250213563A1, “SUBSTITUTED PYRIMIDIN-4(3H)-ONES FOR USE IN TREATING CANCER” (NAVIRE PHARMA, INC., priority 2021, published 2025)

What was measured:
[1] = Monotherapy studies across panel of CDX models, tolerability; assay type: in vivo, immunocompromised mice; details: 100 mg/kg daily orally, 21 to 33 days, all CDX models
Description: (§1) In vivo efficacy studies were conducted to evaluate the monotherapy anti-tumor activity of Compound (10b) across a panel of cell line-derived xenograft (CDX) models. […] Significant anti-tumor efficacy was also observed in two CDX models with acquired resistance to EGFR inhibitors.

[2] = Single-dose pharmacokinetics, C57BL/6 mouse; assay type: in vivo, mouse (C57BL/6; details: female, plasma, oral 10 mg/kg, free base
Description: (§2) The pharmacokinetic (PK) parameters of Compound (10b) (freebase) were determined following single intravenous (IV) and oral (PO) administration in female CD-1 mouse, female C57BL/6 mouse (PO only), male Sprague Dawley rat, male Beagle dog, and male Cynomolgus monkey. Additional evaluation of the PK properties of Compound (10b) was obtained following single dose PO administration in female CD-1 mouse, male Sprague Dawley rat and male Beagle dog over a dose range spanning 10 to 300 mg/kg (mouse and rat) and 1 to 100 mg/kg (dog). The intravenous dose solutions were prepared in 20% DMSO-60% PEG400-20% water and the oral dose solutions as suspensions in 0.5% methylcellulose in water, unless otherwise noted. Plasma concentration profiles were generated from serial sampling in individual animals up to 24 hours post dose, except for the studies in mice where composite sampling methods were used (i.e. 3 sampling times per mouse; 9 mice per group). […] Exposures increased with increasing dose level across species, in a dose-proportional manner in mouse and dog, and in a greater than dose-proportional manner in rat (80× increase in AUC with a 30× increase in dosage).

[3] = biological target: T1, Hematopoietic Progenitor Kinase 1 (HPK1) (Homo sapiens, UniProt Q92918); assay: KINOMEscan competition binding and Kd dose-response
T1 construct: purchased DiscoverX (KINOMEscan platform)
Description: Activity of Compound (10b) (1 μM) was assessed against a panel of 419 human kinases (including a set of disease-relevant mutant variants). Assays were conducted using the KINOMEscan™ platform from DiscoverX which measures compound interaction with kinases using active site-directed competition binding assays. Displacement of ligand binding to the kinase by <35% of the control value is considered significant. Of the 419 kinases tested, only 4 kinases reached this level of displacement: Protein kinase C eta (PRKCH), 34% control; Large tumor suppressor kinase 1 (LATS1), 32% control; General control nonderepressible 2 kinase (GCN2), 21% control; and Hematopoietic Progenitor Kinase 1 (HPK1), 4.4% control.
HPK1 is a hematopoietic cell-restricted serine/threonine kinase and is not expressed in any major organs. HPK1 has been implicated in activation of c-Jun N-terminal kinases (JNK) and genetic disruption of HPK1 is reported to enhance the antitumor immune response of T cells and dendritic cells (Hu et al 1996; Sawasdikosol et al 2012).

[4] = Single-dose pharmacokinetics, Beagle dog; assay type: in vivo, male); details: free base; for AUC(0-t): read-out: AUC0→24
Description: as §2

NCI-H1975-OR CDX model = assay: Monotherapy anti-tumor activity, CDX model; assay type: in vivo, immunocompromised mice; details: 100 mg/kg daily orally, 21 to 33 days; EGFR^L858R, EGFR^T790M, EGFR^C797S
Description: as §1

KYSE-520 model = assay: Monotherapy anti-tumor activity, CDX model; assay type: in vivo, immunocompromised mice; details: 100 mg/kg daily orally, 21 to 33 days; EGFR^amp
Description: as §1

MIA PaCa-2 CDX model = assay: Monotherapy anti-tumor activity, CDX model; assay type: in vivo, immunocompromised mice; details: 100 mg/kg daily orally, 21 to 33 days; KRAS^G12C
Description: as §1

HCC827-ER CDX model = assay: Monotherapy anti-tumor activity, CDX model; assay type: in vivo, immunocompromised mice; details: 100 mg/kg daily orally, 21 to 33 days; MET^amp, resistant to EGFR inhibitor
Description: as §1

NCI-H358 CDX model = assay: Monotherapy anti-tumor activity, CDX model; assay type: in vivo, immunocompromised mice; details: 100 mg/kg daily orally, 21 to 33 days; KRAS^G12C
Description: as §1

human SHP-1 = biological target: T2, human SHP-1 (Homo sapiens, UniProt P29350); assay: Eurofins Panlabs spectrofluorimetric phosphatase assay; assay type: biochemical; details: 10 μM
T2 construct: a panel of 14 full-length human phosphatases; purchased Eurofins Panlabs
Description: The activity of Compound (10b) was also assessed against a panel of 14 full-length human phosphatases using spectrofluorimetric biochemical assays. These assays were conducted using the Eurofins Panlabs platform.

NCI-H1975 = assay: 3D cell viability (CellTiter-Glo); assay type: cell-based; details: Homo sapiens, 192 h; NCI-H1975, EGFR^L858R/T790M; 8 days of treatment; read-out: 3D CTG (IC50)
Description: (§3) The potency of Compound (10b) in a panel of human tumor cell lines with active MAPK signaling was assessed. Cell viability in a 3D culture system was assessed by measuring CellTiter-Glo (CTG) luminescence following 8 days of treatment with nine concentrations of Compound (10b). MAPK pathway signaling was assessed by measuring pERK protein levels and DUSP6 mRNA levels by homogeneous time resolved fluorescence (HTRF) and quantitative polymerase chain reaction (qPCR), respectively. […] These viability effects correlated with pERK inhibition (Table 2, FIG. 6B) and DUSP6 inhibition (FIG. 6C).

KYSE-520 = assay: 3D cell viability (CellTiter-Glo); assay type: cell-based; details: Homo sapiens, 192 h; KYSE-520, EGFR^amp; 8 days of treatment; read-out: 3D CTG (IC50)
Description: as §3

HCC827 = assay: 3D cell viability (CellTiter-Glo); assay type: cell-based; details: Homo sapiens, 192 h; HCC827, EGFR^Ex19del; 8 days of treatment; read-out: 3D CTG (IC50)
Description: as §3

NCI-H1299 = assay: 3D cell viability (CellTiter-Glo); assay type: cell-based; details: Homo sapiens, 192 h; NCI-H1299, NRAS^Q61K; 8 days of treatment; read-out: 3D CTG (IC50)
Description: as §3

NCI-H358 = assay: 3D cell viability (CellTiter-Glo); assay type: cell-based; details: Homo sapiens, 192 h; NCI-H358, KRAS^G12C; 8 days of treatment; read-out: 3D CTG (IC50)
Description: as §3

[5] = male, Beagle, dog, plasma, IV 1 mg/kg
[6] = male, Beagle, dog, plasma, oral 10 mg/kg

T1 sequence (Q92918 whole entry): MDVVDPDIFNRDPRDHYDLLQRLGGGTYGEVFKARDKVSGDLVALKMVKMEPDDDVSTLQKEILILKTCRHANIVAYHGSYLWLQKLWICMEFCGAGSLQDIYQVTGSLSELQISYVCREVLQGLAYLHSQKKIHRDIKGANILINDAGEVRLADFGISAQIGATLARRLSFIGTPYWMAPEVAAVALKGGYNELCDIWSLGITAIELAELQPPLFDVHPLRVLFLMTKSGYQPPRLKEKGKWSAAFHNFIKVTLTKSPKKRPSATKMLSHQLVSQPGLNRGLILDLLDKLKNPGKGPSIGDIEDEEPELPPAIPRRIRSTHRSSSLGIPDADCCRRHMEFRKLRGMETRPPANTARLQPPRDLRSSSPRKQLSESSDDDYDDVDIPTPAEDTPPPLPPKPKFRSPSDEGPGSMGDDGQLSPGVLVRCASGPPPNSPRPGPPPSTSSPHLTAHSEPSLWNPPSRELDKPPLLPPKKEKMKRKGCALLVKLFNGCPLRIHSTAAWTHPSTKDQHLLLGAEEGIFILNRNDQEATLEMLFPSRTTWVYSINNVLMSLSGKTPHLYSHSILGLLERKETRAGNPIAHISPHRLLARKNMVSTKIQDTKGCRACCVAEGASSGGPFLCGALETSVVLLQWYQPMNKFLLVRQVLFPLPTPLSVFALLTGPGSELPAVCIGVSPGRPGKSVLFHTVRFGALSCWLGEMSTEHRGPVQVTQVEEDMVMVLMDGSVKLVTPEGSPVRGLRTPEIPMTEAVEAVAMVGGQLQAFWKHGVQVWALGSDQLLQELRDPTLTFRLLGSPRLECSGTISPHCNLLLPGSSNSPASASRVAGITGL
T2 sequence (P29350 whole entry): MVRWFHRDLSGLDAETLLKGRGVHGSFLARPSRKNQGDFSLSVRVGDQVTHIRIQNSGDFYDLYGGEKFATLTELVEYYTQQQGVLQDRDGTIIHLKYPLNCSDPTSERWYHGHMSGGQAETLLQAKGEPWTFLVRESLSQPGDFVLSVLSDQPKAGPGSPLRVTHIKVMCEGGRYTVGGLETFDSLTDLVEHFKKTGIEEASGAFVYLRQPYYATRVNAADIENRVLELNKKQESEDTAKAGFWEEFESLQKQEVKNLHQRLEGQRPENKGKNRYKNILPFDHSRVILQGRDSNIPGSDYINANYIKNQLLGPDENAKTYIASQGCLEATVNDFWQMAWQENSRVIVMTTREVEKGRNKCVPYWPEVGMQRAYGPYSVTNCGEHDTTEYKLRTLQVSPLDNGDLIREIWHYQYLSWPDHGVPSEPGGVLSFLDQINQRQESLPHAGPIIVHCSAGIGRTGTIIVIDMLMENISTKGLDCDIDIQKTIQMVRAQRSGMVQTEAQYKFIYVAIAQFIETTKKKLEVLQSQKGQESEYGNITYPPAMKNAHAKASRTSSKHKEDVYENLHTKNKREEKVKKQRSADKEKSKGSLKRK

SMILES: Cc1c(N2CCC3(CC2)CO[C@@H](C)[C@H]3N)nc(C)n(-c2cccc(Cl)c2Cl)c1=O (atropisomer, axis not shown; (Ra)) [Compound (10b), 6-((3S,4S)-4-amino-3-methyl-2-oxa-8-azaspiro[4.5]decan-8-yl)-3-(Ra)-(2,3-dichlorophenyl)-2,5-dimethylpyrimidin-4(3H)-one]
- impact of treatment on body weight [1]: no impact
- tolerability [1]: well tolerated
- Cmax [2]: 5.4 µM
- Tmax [2]: 1 h
- AUC(0-t) ([2]; read-out: AUC0→24): 39 µM·h
- ligand binding, % of control at 1 µM ([3]; 1 μM): 4.4%
- Kd ([3]; dose-response curve): 9800 nM
- half-life [4, 5]: 8.23 h
- AUC(0-t) [4, 5]: 3.91 µM·h
- clearance ([4]; male, Beagle, dog, plasma, IV 1 mg/kg, read-out: Clp (converted)): 8.5 mL/min/kg
- Vd ([4]; male, Beagle, dog, plasma, IV 1 mg/kg, read-out: Vdss): 5.46 L/kg
- Cmax [4, 6]: 6.37 µM
- Tmax [4, 6]: 0.83 h
- AUC(0-t) [4, 6]: 48.2 µM·h
- F ([4]; oral 10 mg/kg): 115%
- mean tumor regression (NCI-H1975-OR CDX model): 87%
- TGI (KYSE-520 model): 77%
- tumor growth inhibition (TGI) (MIA PaCa-2 CDX model): 74%
- TGI (HCC827-ER CDX model): 84%
- mean tumor regression (NCI-H358 CDX model): 50%
- inhibition of human SHP-1 (human SHP-1): did not demonstrate any inhibition
- IC50 (NCI-H1975): 180 nM
- IC50 (KYSE-520): 210 nM
- IC50 (HCC827): 1200 nM
- IC50 (NCI-H1299): > 25000 nM
- IC50 (NCI-H358): 280 nM
